# According to patent publication US20160095929A1, “PROMOTION OF WOUND HEALING” (Northwestern University, priority 2011, published 2016):
# Entries after “also recorded” stand apart in the source; their conditions may differ.
# Columns and labels:
# mouse KCs [1] = test: Mouse KC proliferation (WST assay); type: cell-based; details: WT primary mouse KCs
# Protocol: (§1) FIGS. 13A-C show ganglioside depletion reverses glucose-induced inhibition of proliferation and in vitro wound healing. (A) Mouse KCs were cultured in standard medium (8 mM glucose) or medium supplemented with 12 mM glucose treated for 72 h, and then plated at confluence onto collagen I-coated 24-well plates in the presence of mitomycin C to prevent proliferation. Two hours after plating, a scratch was made and migration was monitored photographically during the subsequent 60 h in the continued presence or absence of glucose. (B) Quantification of wound healing shown in (A) by computerized measurements of the unfilled gap. (C) Proliferation of mouse KCs was measured by WST assay in standard or glucose-supplemented medium. In vitro proliferation, migration and motility assays. […] For proliferation assays, KCs were plated onto 96-well (2×10^3 cell/well) or 12-well (2×10^4 cell/well) plates and cell proliferation was assessed daily for 5 d by either WST assay (96-well plate) per manufacturer's instruction (Clontech, Calif.) and manual counting using a hemacytometer (12-well plate). Cell migration was assessed by in vitro wound (scratch) assays as previously described (47). […] Cell migration in complete CnT-07 medium in the presence of 4 μg/mL mitomycin was recorded photographically every 3-4 h for 60 h under an inverted phase-contrast microscope (Nikon). […]
# mouse KCs [2] = test: Mouse KC in vitro wound (scratch) migration assay; type: cell-based; details: WT primary mouse KCs
# Protocol: as §1
# GM3 = GM3 expression in HEKs (flow cytometry / immunofluorescence with anti-GM3 antibody); type: cell-based, human; details: for GM3 expression (in words): GCS inhibitor, M154 medium and glucose-supplemented medium
# Protocol: A. HEKs were treated for 96 h with 0-100 pM TNF-α in complete […] medium and GM3S expression determined by qPCR. B. GM3 was quantified by flow cytometry with anti-GM3 antibody after 0-100 pM TNF-α for 96 h. C, D. HEKs were treated with 12 mM supplemental glucose (C) or in […] medium alone (D) for 72 h and GM3 was detected with anti-GM3 antibody by immunofluorescence. […] Changes in GM3 expression by immunofluorescence with anti-GM3 antibody show efficacy of siRNA- and DNA-Au NPs with 60-72 h incubation. […] C. […] A, B=routine immunofluorescence; C, D and inset of D=confocal microscopy. Bar=14 μm.
# IR = IR phosphorylation / signaling immunoblot in HEKs; type: cell-based, human; details: HEKs 72-96 h; 100 pM EtDOP4, 100 pM TNF-α, GM3 50 μM; insulin 5 μg/ml
# Protocol: Cells were starved of growth factors overnight (with treatment continued), then treated for 5-60 mins (15 mins shown) with or without insulin 5 μg/ml. Cells lysates were immunoprecipitated with anti-IR polyclonal antibody and blotted with monoclonal anti-IR, PY-20, or as a loading control, actin. Membrane lysates were immunoprecipitated with IR and immunoblotted with anti-IR (top), PY-20 (second row), anti-IRS-1 (3rd row in B), or to control for loading, actin (bottom). […] Expression of IR was not affected.
# HEKs [3] = test: HEK proliferation (WST assay); type: cell-based, human; details: with or without 12 mM glucose, up to 5 days
# Protocol: (§2) A. KO and WT mouse KCs, grown in CNT07 medium, were treated with and without 12 mM glucose (Glu) for 72 h, and then plated into 96-well plates. Proliferation was measured by WST assay (Clontech) in the continued presence or absence of Glu. B. Mouse KCs were treated as above, then plated at confluence into Col I-coated 24-well plates in the presence of mitomycin C. Two hours after plating, a scratch was made and migration monitored. Migration was decreased by Glu, but was faster in the KO cells treated with Glu than with vehicle. […] A. HEKs were treated as described in FIG. 7 for mouse KCs and proliferation was measured. […] B. HEKs were treated and scratch assays performed as in FIG. 7. […] C. HEKs were treated with Glu and/or C9, but starved during the last 18 h. Cells were plated on the top of Col I-coated Boyden inserts in supplement-free medium, while the lower level was filled with the same medium with and without insulin (5 μg/ml) or IGF-1 (100 ng/ml) (Haase et al. J Cell Sci 2003; 116:3227-38.; herein incorporated by reference in its entirety). After 18 h, HEKs on the bottom surface were stained and counted. […] D-G. After their incubation in Glu and/or C9, HEKs were plated onto Col I-coated glass dishes and, 2 h later, single cells were imaged every 2 mins over a 2 h period using a Biostation phase contrast microscope (Nikon). […]
# globotriaosylceramide = details: patients with Fabry disease; cited from earlier work
# HEKs [4] = test: HEK scratch migration assay; type: cell-based, human; details: mitomycin C, with or without glucose
# Protocol: as §2
# ceramides = test: Ceramide detection with anti-C2 Cer antibody (TLC immunostaining, ELISA) in HEKs; type: cell-based, human; details: TLC immunostaining and ELISA
# [5] = phase II trials for Gaucher disease; cited from earlier work
# p-cofilin = p-cofilin immunoblotting in HEKs; type: cell-based, human; details: HEKs treated 72 h, immunoblot
# Protocol: HEKs were treated for 72 h with or without Glu, C9, Glu+C9 (A), or with sense DNA-Au NPs or the hybrid GM2/GD2S and GD3S antisense-Au NPs (B). Immunoblotting of cell lysates detected p-cofilin8 ([…]), cofilin and, as a loading control, GAPDH.
# α5 integrin = details: on fibronectin (FN); cited from earlier work
# GCS = biological target: T1, GCS (Homo sapiens, UniProt Q16739); details: cited from earlier work
# T1 sequence (Q16739 1-394): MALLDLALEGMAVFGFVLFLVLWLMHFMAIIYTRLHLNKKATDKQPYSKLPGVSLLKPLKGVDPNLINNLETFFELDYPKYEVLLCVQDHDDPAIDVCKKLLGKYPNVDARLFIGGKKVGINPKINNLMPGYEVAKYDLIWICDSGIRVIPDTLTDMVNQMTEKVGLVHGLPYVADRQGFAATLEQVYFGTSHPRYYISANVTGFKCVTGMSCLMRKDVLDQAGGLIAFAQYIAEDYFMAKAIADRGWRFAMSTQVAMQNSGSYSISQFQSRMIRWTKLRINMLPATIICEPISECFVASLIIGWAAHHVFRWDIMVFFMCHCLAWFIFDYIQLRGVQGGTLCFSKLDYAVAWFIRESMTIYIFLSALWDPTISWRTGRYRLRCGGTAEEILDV
# HEKs [6] = test: HEK single live cell imaging (Biostation); type: cell-based, human; details: Glu-treated HEKs
# Protocol: (§3) A. HEKs were treated as described in FIG. 7 for mouse KCs and proliferation was measured. […] B. HEKs were treated and scratch assays performed as in FIG. 7. […] C. HEKs were treated with Glu and/or C9, but starved during the last 18 h. Cells were plated on the top of Col I-coated Boyden inserts in supplement-free medium, while the lower level was filled with the same medium with and without insulin (5 μg/ml) or IGF-1 (100 ng/ml) (Haase et al. J Cell Sci 2003; 116:3227-38.; herein incorporated by reference in its entirety). After 18 h, HEKs on the bottom surface were stained and counted. […] D-G. After their incubation in Glu and/or C9, HEKs were plated onto Col I-coated glass dishes and, 2 h later, single cells were imaged every 2 mins over a 2 h period using a Biostation phase contrast microscope (Nikon). […] Vector maps constructed with 10 representative tracks (G) further show reversal of the impact of Glu with C9 alone (which was approximately the same as with growth factors).
# HEKs [7] = test: HEK chemotaxis, Col I-coated Boyden inserts; type: cell-based, human; details: supplemental Glu, 18 h, with or without insulin 5 μg/ml or IGF-1 100 ng/ml
# Protocol: as §3
# [8] = in animals, relative to P4; cited from earlier work
# IGF-1R = IGF-1R phosphorylation immunoblot in HEKs; type: cell-based, human; details: HEKs 72 h, with or without Glu; IGF-1 100 ng/ml or insulin 5 μg/ml
molecule,measurement,setting,value
lactosylceramide [LacCer],proliferation (in words),mouse KCs [1],slightly decreased
same,migration (in words),mouse KCs [2],slightly decreased
TNF-α,increase in membrane-based GM3 expression,"GM3; 0-100 pM TNF-α for 96 h, flow cytometry",10 fold
same,IR signaling / IR phosphorylation (in words),IR,suppresses IR signaling
"CCCCCCCCCCCCCCCC(=O)N[C@H](CN1CCCC1)[C@H](O)c1ccc2c(c1)OCCO2 [EtDOP4, D-threo-EtDO-P4]",proliferation (in words),HEKs [3],increases
same,accumulation of globotriaosylceramide,globotriaosylceramide,decrease the accumulation of globotriaosylceramide
same,migration (in words),HEKs [4],increases
same,GM3 expression (in words),GM3,deplete GM3
same,ceramide level (in words),ceramides,neither C9 nor EtDOP4 increase ceramide
same,IR signaling / IR phosphorylation (in words),IR,rescues the suppression of TNF-α of IR phosphorylation
eliglustat tartrate,toxicity,[5],showed little toxicity
"insulin: growth factor, 5 μg/ml",phosphorylation of cofilin (in words),p-cofilin,decrease p-cofilin
IGF-1: insulin-like growth factor 1,phosphorylation of cofilin (in words),p-cofilin,decrease p-cofilin
GT1b,KC migration,α5 integrin,inhibit KC migration specifically on fibronectin (FN)
CCCCCCCCC(=O)N[C@H](CN1CCCC1)[C@H](O)c1ccc2c(c1)OCCO2.O=C(O)C(O)C(O)C(=O)O [C9],proliferation (in words),HEKs [3],greatest in cells treated with Glu and C9; also recorded: increases
same,phosphorylation of cofilin (in words),p-cofilin,decrease p-cofilin
same,migration (in words),HEKs [4],even faster in the HEKs treated with C9+Glu than in vehicle-treated HEKs; also recorded: increases
same,potency at inhibiting GCS relative to P4,GCS,somewhat less potent
same,reduction in GM3 expression,"GM3; 1 μM C9 for 72 h, flow cytometry",93%
same,GM3 expression (in words),GM3,prevents GM3 expression; also recorded: deplete GM3
same,net displacement (reflecting persistence),HEKs [6]; at 2 h,significantly increased
same,total distance (reflecting velocity),HEKs [6]; at 2 h,significantly increased
same,cell polarity (in words),HEKs [6]; imaged over 2 h,increased cell polarity
same,ceramide level (in words),ceramides,does not increase ceramides; also recorded: neither C9 nor EtDOP4 increase ceramide
same,chemotaxis (in words),HEKs [7],increased chemotaxis of HEKs exposed to supplemental Glu
same,metabolic and tolerability profile,[8],better metabolic and tolerability profile
same,IGF-1R phosphorylation (in words),IGF-1R,"phosphorylates IGF-1R, including in the presence of supplemental glucose; also recorded: reverses the glucose-induced suppression of IGF-1R activation"
